According to PMC6445138 (2019):

Experiments:
[1] = test system: Ss PreQ1 TTA transcript (RNA, riboswitch) AUGUAGUAAGGAGGUUGUAUGGAAGACGAGAGGUUCCUAGCUGAUACCCUCUAUAAAAAACUAGACACAUGUACAACGUCUGUCUUUUUUAUAGAGAUAGGCGUUUUUUUAUGCGCUUAUCUAAACCCUGUACCAGUUAGUUCGACUAUUUUUAAGGAGU; assay: single-round in vitro transcription termination; conditions: KCl, MgCl2; 20 mM Tris-HCl pH 8.0, 37 °C, E. coli RNA polymerase
[2] = test system: 5′-AF647-TtPreQ1-RS (RNA, riboswitch) CUGGGUCGCAGUAACCCCAGUUAACAAAACAAG; assay: fluorescence intensity titration of labelled RNA; conditions: 100 mM KCl, 1 mM MgCl2; 50 mM Tris pH 7.5, 10% DMSO, room temperature, RNA 50 nM; apparent
[3] = test system: 5′-Cy5-BsPreQ1-RS (RNA, riboswitch) AGAGGUUCUAGCUACACCCUCUAUAAAAAACUAA; assay: fluorescence intensity titration of labelled RNA; conditions: 100 mM KCl, 1 mM MgCl2; 50 mM Tris pH 7.5, 10% DMSO, room temperature, RNA 50 nM; apparent
[4] = test system: 5′-AF647-BsPreQ1-RS (RNA, riboswitch) GGAGAGGUUCUAGCUACACCCUCUAUAAAAAACUAA; assay: in-line probing; conditions: 10 mM KCl, 2 mM MgCl2
[5] = test system: ab13_14 (RNA, riboswitch, abasic at 13 and 14) CUGGGUCGCAGUNNCCCCAGUUAACAAAACAAG; assay: X-ray crystallography
[6] = test system: ab13_14_15 (RNA, riboswitch, abasic at 13, 14 and 15) CUGGGUCGCAGUNNNCCCAGUUAACAAAACAAG; assay: X-ray crystallography
[7] = test system: TtPreQ1-RS (unlabeled) (RNA, riboswitch) CUGGGUCGCAGUAACCCCAGUUAACAAAACAAG; assay: WaterLOGSY and CPMG NMR; conditions: 100 mM KCl, 1 mM MgCl2; 50 mM Tris-d11 pH 7.5, 5% DMSO-d6; non-binding control, tested at 375 µM
[8] = test system: BsPreQ1-RS (unlabeled) (RNA, riboswitch) AGAGGUUCUAGCUACACCCUCUAUAAAAAACUAA; assay: WaterLOGSY and CPMG NMR; conditions: 100 mM KCl, 1 mM MgCl2; 50 mM Tris-d11 pH 7.5, 5% DMSO-d6; non-binding control, tested at 375 µM
[9] = test system: SsPreQ1-RS (unlabeled) (RNA, riboswitch) AGAGGUUCCUAGCUGAUACCCUCUAUAAAAAACUA; assay: WaterLOGSY NMR; conditions: 100 mM KCl, 1 mM MgCl2
[10] = test system: TtPreQ1-RS (unlabeled) (RNA, riboswitch) CUGGGUCGCAGUAACCCCAGUUAACAAAACAAG; assay: inherent ligand fluorescence titration; conditions: 100 mM KCl, 1 mM MgCl2; 50 mM Tris pH 7.5, 5% DMSO, room temperature, compound 500 nM
[11] = test system: BsPreQ1-RS (unlabeled) (RNA, riboswitch) AGAGGUUCUAGCUACACCCUCUAUAAAAAACUAA; assay: inherent ligand fluorescence titration; conditions: 100 mM KCl, 1 mM MgCl2; 50 mM Tris pH 7.5, 5% DMSO, room temperature, compound 500 nM

Structure (SMILES): NCc1c[nH]c2nc(N)[nH]c(=O)c12
- EC50 [1]: 36 ± 5 nM
- KD [2]: 2.8 ± 0.4 nM
- KD [3]: 4.1 ± 0.6 nM
- binding ([4]; 50 mM Tris pH 8.3, room temperature, compound 10 µM): yes
- binding ([5]; 1.69 Å): yes

Structure (SMILES): CN(C)CCOc1ccc2oc3ccccc3c2c1
- KD [2]: 600 ± 200 nM
- KD [3]: 400 ± 100 nM
- binding ([5]; 1.94 Å): yes

Structure (SMILES): CN(C)CCOc1ccc2[nH]c3ccccc3c2c1
- binding ([6]; 2.56 Å): yes
- KD [2]: 100 ± 40 nM
- KD [3]: 100 ± 80 nM

Structure (SMILES): CN[C@H](C(=O)O)C(C)C
- binding [7]: no
- binding [8]: no
- binding ([9]; 50 mM Tris-d11 pH 7.5, 5% DMSO-d6, non-binding control, tested at 375 µM): no

Structure (SMILES): NCCOc1ccc2oc3ccccc3c2c1
- binding ([6]; 1.8 Å): yes
- EC50 [1]: 359000 ± 23000 nM
- KD [2]: 457 ± 202 nM
- KD [10]: 99 ± 38 nM
- KD [11]: 490 ± 368 nM
- KD [3]: 534 ± 123 nM
- binding ([4]; 50 mM Tris pH 8.3, 5% DMSO, room temperature, compound 0.1-300 µM): yes
- binding ([9]; 50 mM Tris-d11 pH 7.5, 5% DMSO-d6, compound 375 µM): yes
- binding ([5]; 1.8 Å): yes
